According to ChEMBL document CHEMBL1201862, “PubChem BioAssay data set” (2004):
Calls of active or inactive are those of the source.

Tests used:
Beta-galactosidase = Beta-galactosidase (Escherichia coli, UniProt Q8VNN2); assay: PubChem AID 485352; type: functional
[1] = target: T1, Nucleotide-binding oligomerization domain-containing protein 2 (Homo sapiens, UniProt Q9HC29); assay: NOD2 signaling inhibitors, cell-based, luminescence, uHTS, HEK293 (AID 1566); type: functional
[2] = target: T2, Type-1 angiotensin II receptor (Homo sapiens, UniProt P30556); assay: AT1 receptor antagonists, dose response, selectivity assay for APJ receptor antagonist project, cell-based, uHTS hits (AID 463214); type: functional;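 note: antagonist potency against angiotensin II stimulated AT1 response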
T2 sequence (P30556 whole entry): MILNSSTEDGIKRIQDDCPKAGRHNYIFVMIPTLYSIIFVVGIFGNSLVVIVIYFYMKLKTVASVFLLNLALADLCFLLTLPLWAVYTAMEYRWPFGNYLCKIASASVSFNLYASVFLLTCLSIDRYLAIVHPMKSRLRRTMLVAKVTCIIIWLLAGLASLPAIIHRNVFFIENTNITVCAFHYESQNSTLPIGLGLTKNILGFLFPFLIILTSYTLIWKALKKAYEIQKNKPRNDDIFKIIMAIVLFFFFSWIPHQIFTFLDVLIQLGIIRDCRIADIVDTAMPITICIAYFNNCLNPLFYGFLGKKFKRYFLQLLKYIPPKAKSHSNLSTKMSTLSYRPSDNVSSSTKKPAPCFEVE

Tumor necrosis factor = Tumor necrosis factor (Homo sapiens, UniProt P01375); assay: TNFa-triggered NF-kB activation inhibitors, SAR follow-up, cell-based, revised (AID 2337); type: functional
[3] = target: T3, Nucleotide-binding oligomerization domain-containing protein 1 (Homo sapiens, UniProt Q9Y239); assay: NOD1 signaling inhibitors, SAR follow-up, revised (AID 2333); type: functional
T3 sequence (Q9Y239 whole entry): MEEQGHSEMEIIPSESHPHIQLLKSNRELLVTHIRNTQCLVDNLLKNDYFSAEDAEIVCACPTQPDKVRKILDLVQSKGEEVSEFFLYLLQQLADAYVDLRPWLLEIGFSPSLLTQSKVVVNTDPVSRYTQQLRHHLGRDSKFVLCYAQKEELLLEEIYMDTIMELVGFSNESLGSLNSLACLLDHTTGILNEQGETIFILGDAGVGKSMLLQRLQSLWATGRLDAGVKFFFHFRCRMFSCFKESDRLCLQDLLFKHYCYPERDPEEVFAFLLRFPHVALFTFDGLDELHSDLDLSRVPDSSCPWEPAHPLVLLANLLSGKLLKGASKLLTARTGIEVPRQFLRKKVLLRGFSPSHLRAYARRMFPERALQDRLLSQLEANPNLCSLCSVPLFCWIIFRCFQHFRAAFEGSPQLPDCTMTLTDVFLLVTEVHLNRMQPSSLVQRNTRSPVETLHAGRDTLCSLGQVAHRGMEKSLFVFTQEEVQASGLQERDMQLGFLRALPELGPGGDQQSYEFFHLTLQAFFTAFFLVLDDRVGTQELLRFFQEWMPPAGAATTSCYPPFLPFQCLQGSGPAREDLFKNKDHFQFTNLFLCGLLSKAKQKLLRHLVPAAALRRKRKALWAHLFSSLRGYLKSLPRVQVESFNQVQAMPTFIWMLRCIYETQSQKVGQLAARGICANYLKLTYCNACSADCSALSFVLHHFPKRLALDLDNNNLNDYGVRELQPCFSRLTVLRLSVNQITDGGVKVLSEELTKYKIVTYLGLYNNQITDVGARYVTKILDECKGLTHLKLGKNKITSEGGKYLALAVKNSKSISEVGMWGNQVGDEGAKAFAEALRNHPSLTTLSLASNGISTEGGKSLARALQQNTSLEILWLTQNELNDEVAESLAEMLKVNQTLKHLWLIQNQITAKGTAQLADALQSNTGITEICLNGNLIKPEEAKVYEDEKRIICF

[4] = target: T1, Nucleotide-binding oligomerization domain-containing protein 2; assay: PubChem AID 2334; type: functional
HEK293 [5] = assay: cells; type: functional, cell-based; conditions: Homo sapiens
[6] = target: T4, Nuclear receptor subfamily 0 group B member 1 (Homo sapiens, UniProt P51843); assay: Luminescence-based cell-based high throughput dose response assay for inhibitors of the orphan nuclear receptor subfamily 0, group B, member 1 (DAX1; NR0B1). [Related pubchem assays (depositor defined):AID504766, AID504790]; type: functional
T4 sequence (P51843 whole entry): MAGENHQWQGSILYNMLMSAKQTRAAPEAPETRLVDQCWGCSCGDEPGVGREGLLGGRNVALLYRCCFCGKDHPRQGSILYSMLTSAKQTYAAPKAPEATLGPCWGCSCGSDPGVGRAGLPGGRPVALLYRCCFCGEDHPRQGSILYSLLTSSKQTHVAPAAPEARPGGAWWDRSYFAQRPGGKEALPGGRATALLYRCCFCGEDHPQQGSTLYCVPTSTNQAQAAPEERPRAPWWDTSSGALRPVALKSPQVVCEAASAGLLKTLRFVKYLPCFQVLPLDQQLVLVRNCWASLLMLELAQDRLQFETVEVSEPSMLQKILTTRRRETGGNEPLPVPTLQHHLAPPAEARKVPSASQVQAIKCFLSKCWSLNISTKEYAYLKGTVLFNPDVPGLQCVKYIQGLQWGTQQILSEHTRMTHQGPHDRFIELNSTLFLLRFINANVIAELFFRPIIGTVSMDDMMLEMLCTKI

[7] = target: T5, Oxysterols receptor LXR-beta (Homo sapiens, UniProt P55055); type: functional, cell-based;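 note: Cell-based luminescence dose-response assay of agonist activity at LXR, run as a confirmatory counterscreen to a daf-12 agonist screen; HEK293 cells with Gal4-LXR fusion and GAL4-driven luciferase reporter; agonist potency from rising luciferase signal of a Gal4-LXR reporter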
T5 sequence (P55055 whole entry): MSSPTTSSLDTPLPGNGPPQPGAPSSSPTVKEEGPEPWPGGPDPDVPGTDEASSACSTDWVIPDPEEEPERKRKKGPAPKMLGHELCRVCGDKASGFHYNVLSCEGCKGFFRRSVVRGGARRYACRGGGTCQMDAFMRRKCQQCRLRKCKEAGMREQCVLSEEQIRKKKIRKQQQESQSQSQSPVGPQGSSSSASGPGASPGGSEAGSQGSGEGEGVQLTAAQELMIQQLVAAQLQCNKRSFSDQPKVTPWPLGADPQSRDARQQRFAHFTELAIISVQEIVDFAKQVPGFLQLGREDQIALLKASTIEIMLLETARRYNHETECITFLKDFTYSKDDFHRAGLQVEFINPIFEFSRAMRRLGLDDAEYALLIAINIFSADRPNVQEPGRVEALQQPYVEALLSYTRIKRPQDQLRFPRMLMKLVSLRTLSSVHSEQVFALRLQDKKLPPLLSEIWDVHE

Jurkat = assay: SAR Analysis of small molecule inhibitors of […] specific antigen receptor-induced NF-kB activation in a Jurkat cell line using a luminescence assay - Set 3. [Related pubchem assays (depositor defined):AID435022, AID435025, AID465]; type: functional, cell-based; conditions: Homo sapiens
HEK293 [8] = assay: SAR Analysis of small molecule inhibitors of B-cell specific antigen receptor-induced NF-kB activation in a HEK-293T cell line using a luminescence assay - Set 2. [Related pubchem assays (depositor defined):AID435022, AID435025, AID489021]; type: functional, cell-based; conditions: Homo sapiens
HEK293 [9] = assay: cytotoxicity in HEK293T NF-kB-Luc cells, SAR follow-up, cytotoxicity control for NF-kB activator project, cell-based, resazurin fluorescence (AID 493251); type: functional; conditions: Homo sapiens
[10] = target: T6, RNA-binding protein pos-1 (Caenorhabditis elegans, UniProt G5EF15); assay: inhibitors of POS-1/mex-3 RNA binding, dose response, biochemical, fluorescence polarization (AID 1964);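 note: purified POS-1 fused to maltose binding protein made in E. coli; potency of compounds blocking POS-1 binding to fluorescent RNA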
T6 sequence (G5EF15 whole entry): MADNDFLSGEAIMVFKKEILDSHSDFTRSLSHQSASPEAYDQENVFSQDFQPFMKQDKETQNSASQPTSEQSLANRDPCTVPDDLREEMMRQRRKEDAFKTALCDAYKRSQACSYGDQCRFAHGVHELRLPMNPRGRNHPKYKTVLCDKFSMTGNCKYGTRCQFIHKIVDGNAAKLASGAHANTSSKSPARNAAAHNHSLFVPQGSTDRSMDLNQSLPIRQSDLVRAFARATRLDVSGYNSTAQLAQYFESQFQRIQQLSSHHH

[11] = target: T7, Zinc finger protein mex-5 (Caenorhabditis elegans, UniProt Q9XUB2); assay: MEX-5/TCR-2 RNA interaction inhibitors, dose response, biochemical, C. elegans, fluorescence polarization (AID 1960)
T7 sequence (Q9XUB2 whole entry): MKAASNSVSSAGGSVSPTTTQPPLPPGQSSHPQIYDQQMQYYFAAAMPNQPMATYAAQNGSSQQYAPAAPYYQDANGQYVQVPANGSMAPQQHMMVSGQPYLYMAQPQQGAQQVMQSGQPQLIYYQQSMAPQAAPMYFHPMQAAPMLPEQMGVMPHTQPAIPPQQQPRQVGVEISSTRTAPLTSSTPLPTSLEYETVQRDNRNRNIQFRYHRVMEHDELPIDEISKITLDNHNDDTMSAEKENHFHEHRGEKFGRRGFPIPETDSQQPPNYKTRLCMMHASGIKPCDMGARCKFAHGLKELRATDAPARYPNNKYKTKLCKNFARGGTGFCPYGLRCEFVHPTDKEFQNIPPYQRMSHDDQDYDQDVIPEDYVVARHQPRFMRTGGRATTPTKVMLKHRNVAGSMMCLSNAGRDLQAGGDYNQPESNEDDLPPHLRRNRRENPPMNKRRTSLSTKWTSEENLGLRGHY

[12] = NIH-3T3 fibroblast cytotoxicity, dose response, cytotoxicity control, cell-based, fluorescence, Alamar Blue, secondary assay (AID 2327); type: functional;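 note: NIH-3T3 mouse fibroblasts cultured with fluconazole at 8 µg/mL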
[13] = C. albicans growth with fluconazole, confirmation, fluorescence, retest (AID 2467); type: functional, cell-based
[14] = target: T8, Serine/threonine-protein phosphatase (Candida dubliniensis (strain CD36 / CBS 7987 / NCPF 3949 / NRRLY-17841) (Yeast), UniProt B9W6M3); assay: calcineurin pathway inhibitors in yeast reporter, dose response, S. cerevisiae, CDRE-lacZ, luminescence, secondary (AID 2388); type: functional, cell-based;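 note: yeast reporter cells carrying a calcineurin-responsive lacZ construct stimulated with calcium chloride; luminescent beta-galactosidase reporter signal in whole cells rather than isolated phosphatase activity; potency for inhibition where a drop in reporter signal means calcineurin blockade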
T8 sequence (B9W6M3 whole entry): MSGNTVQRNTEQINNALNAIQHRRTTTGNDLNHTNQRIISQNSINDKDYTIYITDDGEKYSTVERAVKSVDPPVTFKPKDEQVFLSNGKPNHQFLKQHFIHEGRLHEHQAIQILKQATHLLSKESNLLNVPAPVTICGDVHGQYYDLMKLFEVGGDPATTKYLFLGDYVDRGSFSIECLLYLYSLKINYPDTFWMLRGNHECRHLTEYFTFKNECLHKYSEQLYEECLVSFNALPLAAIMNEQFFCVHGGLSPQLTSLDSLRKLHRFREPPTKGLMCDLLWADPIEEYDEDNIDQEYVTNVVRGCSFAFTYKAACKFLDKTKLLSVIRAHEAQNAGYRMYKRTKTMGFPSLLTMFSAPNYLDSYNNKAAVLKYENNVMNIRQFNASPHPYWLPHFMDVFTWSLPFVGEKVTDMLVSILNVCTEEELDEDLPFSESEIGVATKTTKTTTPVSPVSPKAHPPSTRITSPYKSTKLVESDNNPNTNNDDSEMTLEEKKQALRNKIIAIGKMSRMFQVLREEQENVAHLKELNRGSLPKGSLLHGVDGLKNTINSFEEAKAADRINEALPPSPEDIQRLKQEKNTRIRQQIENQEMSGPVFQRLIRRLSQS

[15] = target: ATP-dependent molecular chaperone HSP82 (Candida albicans (strain WO-1) (Yeast), UniProt C4YTQ8); assay: loss of DOC-induced GRE-beta-galactosidase reporter signal, dose response, Hsp90 inhibitor project, S. cerevisiae, luminescence (AID 2400); type: functional, cell-based;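 note: beta-galactosidase luminescence from glucocorticoid response element reporter as proxy for Hsp90 function; inhibitor potency where signal loss means Hsp90 inhibition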
Chain of ATP-dependent molecular chaperone HSP82 (C4YTQ8 whole entry): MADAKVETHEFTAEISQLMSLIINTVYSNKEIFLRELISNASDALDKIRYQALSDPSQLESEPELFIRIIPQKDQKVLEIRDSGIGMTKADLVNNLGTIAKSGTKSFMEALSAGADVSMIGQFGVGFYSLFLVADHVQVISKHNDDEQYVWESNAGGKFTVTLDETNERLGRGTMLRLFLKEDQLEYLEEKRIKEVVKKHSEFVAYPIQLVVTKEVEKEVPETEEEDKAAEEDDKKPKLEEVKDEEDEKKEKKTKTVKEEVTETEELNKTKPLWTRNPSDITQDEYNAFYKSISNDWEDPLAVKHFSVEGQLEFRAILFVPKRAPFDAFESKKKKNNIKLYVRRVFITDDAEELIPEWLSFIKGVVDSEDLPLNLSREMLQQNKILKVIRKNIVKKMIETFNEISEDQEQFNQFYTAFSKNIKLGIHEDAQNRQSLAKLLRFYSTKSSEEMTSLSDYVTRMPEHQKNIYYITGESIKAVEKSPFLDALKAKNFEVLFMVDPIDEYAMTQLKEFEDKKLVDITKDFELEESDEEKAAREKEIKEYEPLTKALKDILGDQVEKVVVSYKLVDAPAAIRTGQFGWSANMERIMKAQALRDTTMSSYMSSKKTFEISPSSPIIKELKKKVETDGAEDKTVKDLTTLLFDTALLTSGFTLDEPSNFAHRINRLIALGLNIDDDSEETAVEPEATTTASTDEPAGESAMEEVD

T1 sequence (Q9HC29 whole entry, the tested form may be a part): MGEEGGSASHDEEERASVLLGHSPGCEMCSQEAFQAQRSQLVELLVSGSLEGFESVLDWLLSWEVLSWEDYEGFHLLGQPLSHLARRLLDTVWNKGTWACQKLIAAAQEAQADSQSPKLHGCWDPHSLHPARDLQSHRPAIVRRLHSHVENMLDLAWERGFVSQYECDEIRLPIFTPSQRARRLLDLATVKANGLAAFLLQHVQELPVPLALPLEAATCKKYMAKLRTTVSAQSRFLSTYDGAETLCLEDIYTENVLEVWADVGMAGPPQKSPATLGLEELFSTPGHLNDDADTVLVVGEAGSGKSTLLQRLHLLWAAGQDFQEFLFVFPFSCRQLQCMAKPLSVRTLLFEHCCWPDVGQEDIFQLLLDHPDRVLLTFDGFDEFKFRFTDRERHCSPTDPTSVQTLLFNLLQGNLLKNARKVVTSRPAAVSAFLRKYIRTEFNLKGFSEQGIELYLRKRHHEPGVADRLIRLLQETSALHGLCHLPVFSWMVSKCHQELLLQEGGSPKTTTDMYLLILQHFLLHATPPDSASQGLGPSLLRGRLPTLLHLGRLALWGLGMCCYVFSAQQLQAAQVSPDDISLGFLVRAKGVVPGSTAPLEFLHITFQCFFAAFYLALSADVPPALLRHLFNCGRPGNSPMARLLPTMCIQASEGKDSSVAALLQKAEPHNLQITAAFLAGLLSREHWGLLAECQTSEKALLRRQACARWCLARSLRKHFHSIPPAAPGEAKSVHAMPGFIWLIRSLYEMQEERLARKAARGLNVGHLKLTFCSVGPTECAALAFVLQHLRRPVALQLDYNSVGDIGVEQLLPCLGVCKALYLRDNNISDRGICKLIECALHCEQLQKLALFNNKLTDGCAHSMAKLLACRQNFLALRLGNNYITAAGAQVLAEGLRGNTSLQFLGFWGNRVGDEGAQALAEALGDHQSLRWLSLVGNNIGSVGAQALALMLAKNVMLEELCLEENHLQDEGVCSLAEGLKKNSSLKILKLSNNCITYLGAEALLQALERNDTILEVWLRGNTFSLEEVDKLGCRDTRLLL
Chain of Beta-galactosidase (Q8VNN2 whole entry, the tested form may be a part): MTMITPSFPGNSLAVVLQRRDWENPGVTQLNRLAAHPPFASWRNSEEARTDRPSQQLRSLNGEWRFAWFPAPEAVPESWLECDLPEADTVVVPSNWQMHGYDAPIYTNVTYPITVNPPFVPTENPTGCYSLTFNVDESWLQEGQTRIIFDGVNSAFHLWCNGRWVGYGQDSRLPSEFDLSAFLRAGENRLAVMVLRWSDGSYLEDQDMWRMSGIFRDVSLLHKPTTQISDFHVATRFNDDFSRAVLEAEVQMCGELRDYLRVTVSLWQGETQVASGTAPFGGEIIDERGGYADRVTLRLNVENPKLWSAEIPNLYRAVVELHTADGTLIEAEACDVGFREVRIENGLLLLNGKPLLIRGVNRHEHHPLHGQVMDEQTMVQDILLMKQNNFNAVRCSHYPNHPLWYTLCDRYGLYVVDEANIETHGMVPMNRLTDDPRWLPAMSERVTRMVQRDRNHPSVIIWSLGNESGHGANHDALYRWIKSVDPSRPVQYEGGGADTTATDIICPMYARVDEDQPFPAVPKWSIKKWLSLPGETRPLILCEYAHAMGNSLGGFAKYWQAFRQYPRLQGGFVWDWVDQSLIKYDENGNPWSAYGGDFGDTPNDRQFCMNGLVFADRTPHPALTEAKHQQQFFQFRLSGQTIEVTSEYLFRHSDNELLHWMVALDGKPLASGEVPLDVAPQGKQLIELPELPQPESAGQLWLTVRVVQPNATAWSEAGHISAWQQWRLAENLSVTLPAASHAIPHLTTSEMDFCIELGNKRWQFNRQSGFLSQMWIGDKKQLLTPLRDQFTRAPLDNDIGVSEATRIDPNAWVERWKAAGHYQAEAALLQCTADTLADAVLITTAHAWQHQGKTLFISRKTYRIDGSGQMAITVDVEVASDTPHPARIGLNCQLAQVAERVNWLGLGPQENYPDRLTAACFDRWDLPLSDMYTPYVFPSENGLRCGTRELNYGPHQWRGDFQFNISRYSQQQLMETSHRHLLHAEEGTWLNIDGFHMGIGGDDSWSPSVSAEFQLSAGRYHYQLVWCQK
Chain of Tumor necrosis factor (P01375 whole entry, the tested form may be a part): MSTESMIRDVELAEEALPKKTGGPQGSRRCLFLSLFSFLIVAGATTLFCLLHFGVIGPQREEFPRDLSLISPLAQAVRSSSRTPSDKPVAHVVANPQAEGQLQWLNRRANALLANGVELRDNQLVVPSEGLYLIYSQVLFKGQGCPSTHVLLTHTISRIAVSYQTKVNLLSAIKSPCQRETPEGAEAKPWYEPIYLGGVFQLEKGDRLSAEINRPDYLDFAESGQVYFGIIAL

Row | SMILES | EC50 (Beta-galactosidase) | IC50 [2] | IC50 (HEK293 [5]) | IC50 [6] | IC50 (Jurkat) | IC50 (HEK293 [8]) | IC50 (HEK293 [9]) | other results
1 | Fc1ccc(NC(=S)Nc2nccs2)cc1 | > 40 µM (inactive) | 25.2 µM (not active) |  |  |  |  |  | EC50 [1]: > 20 µM (inactive); IC50 (Tumor necrosis factor): > 20 µM (inactive); IC50 [3]: > 20 µM (inactive); IC50 [4]: > 20 µM (inactive)
2 | Cc1ccc(-c2cc(-c3ccc(F)cc3)[nH]n2)c(O)c1 |  |  | > 67.5 µM (inactive) | > 67.5 µM (inactive) |  |  |  | EC50 [7]: > 67.5 µM (inactive); EC50 (cells): > 67.5 µM (inactive)
3 | CC(C)(C)c1ccc(-c2noc(CCC(=O)Nc3cccc([N+](=O)[O-])c3)n2)cc1 |  |  |  |  | 60.7 µM (inactive) | 3.73 µM (active) | 22.1 µM (inactive) | 
4 | Fc1ccc(-c2nc3c(Cl)cc(C(F)(F)F)cn3c2Cl)cc1 |  |  | > 67.6 µM (inactive) | > 67.6 µM (inactive) |  |  |  | EC50 [10]: 41.6 µM (active); EC50 [11]: 37.1 µM (active)
5 | CCC(C)c1ccc(O)c(NC(=S)NC(=O)c2cccnc2)c1 (stereo unspecified) | > 40 µM (inactive) | 14 µM (active) |  |  |  |  |  | EC50 [12]: > 150 µM (inactive); EC50 [13]: 0.632 µM (active); EC50 [14]: > 180 µM (inactive); EC50 [15]: 48.9 µM (active)
6 | CCOc1ccc(-c2nc(CSCC(=O)NCCc3ccc(C)cc3)c(C)o2)cc1 |  |  |  |  | 49.8 µM (inactive) | 40.2 µM (inactive) | > 80 µM (inactive) | 
